From patent US20230033360A1, “COMPOUNDS AS CD73 INHIBITORS” (BioArdis LLC, priority 2019, published 2023)

Biological target: T1, Recombinant Human 5′-Nucleotidase (CD73) (Homo sapiens, UniProt P21589)
T1 construct: CHO derived CD73 (Trp27-Lys547), with a C-terminal 6-His tag; 6-His (C); purchased R&D 5795-EN; host or cells: CHO
T1 sequence (P21589 27-547): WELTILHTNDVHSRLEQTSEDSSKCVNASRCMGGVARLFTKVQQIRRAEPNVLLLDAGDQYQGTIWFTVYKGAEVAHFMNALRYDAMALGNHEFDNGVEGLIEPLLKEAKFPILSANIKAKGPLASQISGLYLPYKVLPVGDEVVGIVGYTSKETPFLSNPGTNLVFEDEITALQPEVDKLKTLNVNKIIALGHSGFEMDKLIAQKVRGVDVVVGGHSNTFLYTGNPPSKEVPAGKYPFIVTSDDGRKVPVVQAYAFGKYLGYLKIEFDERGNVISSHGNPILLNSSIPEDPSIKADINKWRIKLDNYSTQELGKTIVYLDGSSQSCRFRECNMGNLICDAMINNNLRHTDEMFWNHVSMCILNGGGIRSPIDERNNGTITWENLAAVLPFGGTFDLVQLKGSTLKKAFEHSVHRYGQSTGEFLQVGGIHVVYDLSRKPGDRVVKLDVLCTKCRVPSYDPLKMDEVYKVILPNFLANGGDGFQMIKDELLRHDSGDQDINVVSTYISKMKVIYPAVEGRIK
Assay: CD73 Enzyme Assay (PiColorLock inorganic phosphate detection, AMP substrate)
Format: biochemical
Conditions: human CD73 0.5 nM, AMP 30 μM, 20 min at 37° C., absorbance 635 nm; read-out: Potency (IC50)
From the text: Soluble recombinant CD73 catalyzes the conversion of adenosine monophosphate (AMP) to adenosine and inorganic phosphate. The phosphate detection reagent, PiColorLock™ (Innova Bioscience, Cat #303-0125) is based on the change in absorbance of the dye malachite green in the presence of inorganic phosphate (Pi) and this property can be exploited to measure any enzyme that generates Pi. Recombinant Human 5′-Nucleotidase (CD73) (R&D #5795-EN, CHO derived CD73 (Trp27-Lys547), with a C-terminal 6-His tag) was used in the enzymatic assay. This assay, run in a 384-well plate format (Corning® NBS™ 384 well plates, Cat #3640), is a generic method for measuring inorganic phosphate. The basic assay procedure involves two steps: 1) Enzyme reaction: The CD73 enzyme (R&D #5795-EN) is incubated in the presence or absence of compounds. AMP (sigma, cat #01930) is added to start the […] reaction. 2) Detection step: Gold mix is added to the assay system, then stabilizers are added. After incubation the absorbance of the solution is read at OD 635 nm. The recorded OD signal is proportional to the enzyme activity.
Briefly, 25 μl human CD73 (0.5 nM final concentration) in the enzymatic buffer solutions (20 mM Tris, 25 mM NaCl, 1 mM MgCl2, pH 7.5, 0.005% Tween-20) were mixed with various concentrations of the test compound (dissolved in 100% DMSO). These solutions were incubated for 15 min at 25° C., and subsequently 25 μl AMP (30 μM final concentration) was added to start the reaction. The final reaction mixture of enzyme-substrate-compound was incubated for 20 min at 37° C. Meanwhile ‘Gold mix’ was prepared shortly before use by adding 1/100 vol. of accelerator to the PiColorLock™ Gold reagent. 12 μL/well of the ‘Gold mix’ was added to assay plate containing 50 μL enzyme reaction buffer and incubated at 25° C. for 5 min. 5 μL/well stabilizer was added to the assay plate and incubated at 25° C. for 30 min. The absorbance of the well solutions was measured at 635 nm on a Spark 10M instrument (TECAN).
The percent (%) inhibition at each concentration of a compound was calculated relative to the […] value in the Max and Min control wells contained within each assay plate. The Max control wells contained enzyme and substrate as 0% inhibition, and the Min control wells only contained substrate without enzyme as 100% inhibition. The concentrations and percent inhibition values for a test compound are plotted and the concentration of the compound required to achieve 50% inhibition (IC50) was determined with a four-parameter logistic dose response equation.

| SMILES | IC50 [nM] |
| --- | --- |
| O=P(O)(O)CP(=O)(O)OC[C@H]1O[C@@H](c2cnc3c(NC4CCCC4)cc(Cl)nn23)[C@H](O)[C@@H]1O [Example S1, (((((2R,3S,4R,5S)-5-(6-chloro-8-(cyclopentylamino)imidazo[1,2-b]pyridazin-3-yl)-3,4-dihydroxytetrahydrofuran-2-yl)methoxy)(hydroxy)phosphoryl)methyl)phosphonic acid] | 1 to 9.9 |
| O=P(O)(O)CP(=O)(O)OC[C@H]1O[C@@H](c2cnc3c(N4CC5CCCC5C4)cc(Cl)nn23)[C@H](O)[C@@H]1O (stereo partly drawn) [Example S4, (((((2R,3S,4R,5S)-5-(6-chloro-8-(hexahydrocyclopenta[c]pyrrol-2 (1H)-yl)imidazo[1,2-b]pyridazin-3-yl)-3,4-dihydroxytetrahydrofuran-2-yl)methoxy)(hydroxy)phosphoryl)methyl) phosphonic acid] | < 1 |
| O=P(O)(O)CP(=O)(O)OC[C@H]1O[C@H](c2csc3c(NC4CCCC4)nc(Cl)nc23)[C@H](O)[C@@H]1O [Example S11] | 10 to 99 |
| O=P(O)(O)CP(=O)(O)OC[C@H]1OC(c2cnc3c(N4CCCCC4)cc(Cl)nn23)[C@H](O)[C@@H]1O (stereo partly drawn) [Example S26, (((((2R,3S,4R)-5-(6-chloro-8-(piperidin-1-yl)imidazo[1,2-b]pyridazin-3-yl)-3,4-dihydroxytetrahydrofuran-2-yl)methoxy)(hydroxy)phosphoryl)methyl)phosphonic acid] | 1 to 9.9 |
| O=P(O)(O)CP(=O)(O)OC[C@H]1OC(c2cnc3c(N4CC5CCCC5C4)cc(Cl)nn23)[C@@H](F)[C@@H]1O (stereo partly drawn) [Example S24, (((((2R,3R,4S)-5-(6-chloro-8-(hexahydrocyclopenta[c]pyrrol-2 (1H)-yl)imidazo[1,2-b]pyridazin-3-yl)-4-fluoro-3-hydroxytetrahydrofuran-2-yl)methoxy)(hydroxy)phosphoryl)methyl)phosphonic acid] | 1 to 9.9 |
| O=P(O)(O)CP(=O)(O)OC[C@H]1OC(c2cnc3c(N4CCc5ccccc5C4)cc(Cl)nn23)[C@H](O)[C@@H]1O (stereo partly drawn) [Example S28, (((((2R,3S,4R)-5-(6-chloro-8-(3,4-dihydroisoquinolin-2 (1H)-yl)imidazo[1,2-b]pyridazin-3-yl)-3,4-dihydroxytetrahydrofuran-2-yl)methoxy)(hydroxy)phosphoryl)methyl)phosphonic acid] | 1 to 9.9 |
| O=P(O)(O)CP(=O)(O)OC[C@H]1OC(c2cnc3c(N4CCCC4)cc(Cl)nn23)[C@@H](F)[C@@H]1O (stereo partly drawn) [Example S21, (((((2R,3R,4S)-5-(6-chloro-8-(pyrrolidin-1-yl)imidazo[1,2-b]pyridazin-3-yl)-4-fluoro-3-hydroxytetrahydrofuran-2-yl)methoxy)(hydroxy)phosphoryl)methyl)phosphonic acid] | 10 to 99 |
| C[C@H](Nc1cc(Cl)nn2c(C3O[C@H](COP(=O)(O)CP(=O)(O)O)[C@@H](O)[C@@H]3F)cnc12)c1ccccc1F (stereo partly drawn) [Example S19, (((((2R,3R,4S)-5-(6-chloro-8-(((S)-1-(2-fluorophenyl)ethyl)amino)imidazo[1,2-b]pyridazin-3-yl)-4-fluoro-3-hydroxytetrahydrofuran-2-yl)methoxy)(hydroxy)phosphoryl)methyl)phosphonic acid] | 10 to 99 |
| O=P(O)(O)CP(=O)(O)OC[C@H]1OC(c2cnc3c(N4CCCC[C@H]4c4ccccc4)cc(Cl)nn23)[C@H](O)[C@@H]1O (stereo partly drawn) [Example S27, (((((2R,3S,4R)-5-(6-chloro-8-((S)-2-phenylpiperidin-1-yl)imidazo[1,2-b]pyridazin-3-yl)-3,4-dihydroxytetrahydrofuran-2-yl)methoxy)(hydroxy)phosphoryl)methyl)phosphonic acid] | 1 to 9.9 |
| O=P(O)(O)CP(=O)(O)OC[C@H]1OC(c2cnc3c(NC4CCOC4)cc(Cl)nn23)[C@H](O)[C@@H]1O (stereo partly drawn) [Example S12, (((((2R,3S,4R)-5-(6-chloro-8-((tetrahydrofuran-3-yl)amino)imidazo[1,2-b]pyridazin-3-yl)-3,4-dihydroxytetrahydrofuran-2-yl)methoxy)(hydroxy)phosphoryl)methyl)phosphonic acid] | 1 to 9.9 |
| O=P(O)(O)CP(=O)(O)OC[C@H]1OC(c2cnc3c(N4CC5CC5C4)cc(Cl)nn23)[C@H](O)[C@@H]1O (stereo partly drawn) [Example S23, (((((2R,3S,4R)-5-(8-(3-azabicyclo[3.1.0]hexan-3-yl)-6-chloroimidazo[1,2-b]pyridazin-3-yl)-3,4-dihydroxytetrahydrofuran-2-yl)methoxy)(hydroxy)phosphoryl)methyl)phosphonic acid] | < 1 |
| O=P(O)(O)CP(=O)(O)OC[C@H]1OC(c2cnc3c(NCc4ccccc4Cl)cc(Cl)nn23)[C@H](O)[C@@H]1O (stereo partly drawn) [Example S15, (((((2R,3S,4R)-5-(6-chloro-8-((2-chlorobenzyl)amino)imidazo[1,2-b]pyridazin-3-yl)-3,4-dihydroxytetrahydrofuran-2-yl)methoxy)(hydroxy)phosphoryl)methyl)phosphonic acid] | 1 to 9.9 |

Results, then the compound that gave them:

| IC50 [nM] | SMILES |
| --- | --- |
| 1 to 9.9 | O=P(O)(O)CP(=O)(O)OC[C@H]1OC(c2cnc3c(OC4CCCC4)cc(Cl)nn23)[C@H](O)[C@@H]1O (stereo partly drawn) [Example S30, (((((2R,3S,4R)-5-(6-chloro-8-(cyclopentyloxy)imidazo[1,2-b]pyridazin-3-yl)-3,4-dihydroxytetrahydrofuran-2-yl)methoxy)(hydroxy)phosphoryl)methyl)phosphonic acid] |
| 1 to 9.9 | C[C@H](Nc1cc(Cl)nn2c([C@@H]3O[C@H](COP(=O)(O)CP(=O)(O)O)[C@@H](O)[C@H]3O)ncc12)c1ccccc1F [Example S37, (((((2R,3S,4R,5S)-5-(2-chloro-4-(((S)-1-(2-fluorophenyl)ethyl)amino)imidazo[1,5-b]pyridazin-7-yl)-3,4-dihydroxytetrahydrofuran-2-yl)methoxy)(hydroxy)phosphoryl)methyl)phosphonic acid] |
| 1 to 9.9 | O=P(O)(O)CP(=O)(O)OC[C@H]1O[C@@H](c2csc3c(N4CCCC4)cc(Cl)nc23)[C@H](O)[C@@H]1O [Example S42, [({[(2R,3S,4R,5S)-5-[5-chloro-7-(pyrrolidin-1-yl)thieno[3,2-b]pyridin-3-yl]-3,4-dihydroxyoxolan-2-yl]methoxy}(hydroxy)phosphoryl)methyl]phosphonic acid] |
| 1 to 9.9 | O=P(O)(O)CP(=O)(O)OC[C@H]1O[C@@H](c2ncc3c(N4CC5CC5C4)cc(Cl)nn23)[C@H](O)[C@@H]1O (stereo partly drawn) [Example S39, (((((2R,3S,4R,5S)-5-(4-(3-azabicyclo[3.1.0]hexan-3-yl)-2-chloroimidazo[1,5-b]pyridazin-7-yl)-3,4-dihydroxytetrahydrofuran-2-yl)methoxy)(hydroxy)phosphoryl)methyl)phosphonic acid] |
| 10 to 99 | O=P(O)(O)CP(=O)(O)OC[C@H]1O[C@@H](c2csc3c(N4CC5CCCC5C4)nc(Cl)nc23)[C@H](O)[C@@H]1O (stereo partly drawn) [Example S41, [({[(2R,3S,4R,5S)-5-(2-chloro-4-{hexahydro-1H-cyclopenta[c]pyrrol-2-yl}thieno[3,2-d]pyrimidin-7-yl)-3,4-dihydroxyoxolan-2-yl]methoxy}(hydroxy)phosphoryl)methyl]phosphonic acid] |
| 10 to 99 | O=P(O)(O)CP(=O)(O)OC[C@H]1O[C@@H](c2csc3c(N4CC5CCCC5C4)nc(Cl)nc23)[C@@H](F)[C@@H]1O (stereo partly drawn) [Example S44, [({[(2R,3R,4S,5S)-5-(2-chloro-4-{hexahydro-1H-cyclopenta[c]pyrrol-2-yl}thieno[3,2-d]pyrimidin-7-yl)-4-fluoro-3-hydroxyoxolan-2-yl]methoxy}(hydroxy)phosphoryl)methyl]phosphonic acid] |
